Laboratory results taken from patent US9549932B2, “2-(morpholin-4-yl)-1,7-naphthyridines” (BAYER PHARMA AKTIENGESELLSCHAFT, priority 2014, dated 2017).

What follows are compounds tested against full-length human ATR protein (Homo sapiens (Human), UniProt Q13535) (assay: Binding assay ATR (TR-FRET tracer displacement)). Conditions: tracer A, TR-FRET; read-out: ATR binding (tracer A) IC50.
From the text: To determine of binding activity of the test compounds, full-length human ATR protein was expressed and purified together with ATRIP as described above. Furthermore, a fluorescently labelled compound (either tracer A or B as described above) was used as a tracer molecule. Detection of the binding event of the tracer was achieved by time-resolved fluorescence energy transfer (TR-FRET). We used an anti-GST-Terbium antibody (CisBio) that binds to the GST-tag at the N-terminus of ATR-kinase. […] Displacement of the fluorescent tracer by a test compound leads to a reduction of the TR-FRET-signal.
For the assay 50 nl of a 100-fold concentrated solution of the test compound in DMSO was pipetted into a black low volume 384well microtiter plate (MTP, Greiner Bio-One, Frickenhausen, Germany). […] The ATR-working solution was incubated for 30 min at 22° C. prior to dispensing to pre-form the complex of antiGST-Tb+GST-ATR+ATRIP. Then, 3 μl of the ATR-working solution were added to the test compound and the mixture was incubated for 10 min at 22° C. to allow pre-binding of the test compounds to ATR/ATRIP. Then, 2 μl of a 100 nM solution of either tracer A or B in assay buffer were added to the ATR-working solution. The resulting mixture was incubated for 30 min at 22° C. […] The dilution series were prepared separately before the assay on the level of the 100 fold concentrated solutions in DMSO by serial 1:3.4 dilutions in duplicate values for each concentration. IC50 values were calculated by a 4 parameter fit using standard software (GraphPad prism or equivalent).

Chain of full-length human ATR protein (Q13535 other isoform, or with tags, fused parts or gaps): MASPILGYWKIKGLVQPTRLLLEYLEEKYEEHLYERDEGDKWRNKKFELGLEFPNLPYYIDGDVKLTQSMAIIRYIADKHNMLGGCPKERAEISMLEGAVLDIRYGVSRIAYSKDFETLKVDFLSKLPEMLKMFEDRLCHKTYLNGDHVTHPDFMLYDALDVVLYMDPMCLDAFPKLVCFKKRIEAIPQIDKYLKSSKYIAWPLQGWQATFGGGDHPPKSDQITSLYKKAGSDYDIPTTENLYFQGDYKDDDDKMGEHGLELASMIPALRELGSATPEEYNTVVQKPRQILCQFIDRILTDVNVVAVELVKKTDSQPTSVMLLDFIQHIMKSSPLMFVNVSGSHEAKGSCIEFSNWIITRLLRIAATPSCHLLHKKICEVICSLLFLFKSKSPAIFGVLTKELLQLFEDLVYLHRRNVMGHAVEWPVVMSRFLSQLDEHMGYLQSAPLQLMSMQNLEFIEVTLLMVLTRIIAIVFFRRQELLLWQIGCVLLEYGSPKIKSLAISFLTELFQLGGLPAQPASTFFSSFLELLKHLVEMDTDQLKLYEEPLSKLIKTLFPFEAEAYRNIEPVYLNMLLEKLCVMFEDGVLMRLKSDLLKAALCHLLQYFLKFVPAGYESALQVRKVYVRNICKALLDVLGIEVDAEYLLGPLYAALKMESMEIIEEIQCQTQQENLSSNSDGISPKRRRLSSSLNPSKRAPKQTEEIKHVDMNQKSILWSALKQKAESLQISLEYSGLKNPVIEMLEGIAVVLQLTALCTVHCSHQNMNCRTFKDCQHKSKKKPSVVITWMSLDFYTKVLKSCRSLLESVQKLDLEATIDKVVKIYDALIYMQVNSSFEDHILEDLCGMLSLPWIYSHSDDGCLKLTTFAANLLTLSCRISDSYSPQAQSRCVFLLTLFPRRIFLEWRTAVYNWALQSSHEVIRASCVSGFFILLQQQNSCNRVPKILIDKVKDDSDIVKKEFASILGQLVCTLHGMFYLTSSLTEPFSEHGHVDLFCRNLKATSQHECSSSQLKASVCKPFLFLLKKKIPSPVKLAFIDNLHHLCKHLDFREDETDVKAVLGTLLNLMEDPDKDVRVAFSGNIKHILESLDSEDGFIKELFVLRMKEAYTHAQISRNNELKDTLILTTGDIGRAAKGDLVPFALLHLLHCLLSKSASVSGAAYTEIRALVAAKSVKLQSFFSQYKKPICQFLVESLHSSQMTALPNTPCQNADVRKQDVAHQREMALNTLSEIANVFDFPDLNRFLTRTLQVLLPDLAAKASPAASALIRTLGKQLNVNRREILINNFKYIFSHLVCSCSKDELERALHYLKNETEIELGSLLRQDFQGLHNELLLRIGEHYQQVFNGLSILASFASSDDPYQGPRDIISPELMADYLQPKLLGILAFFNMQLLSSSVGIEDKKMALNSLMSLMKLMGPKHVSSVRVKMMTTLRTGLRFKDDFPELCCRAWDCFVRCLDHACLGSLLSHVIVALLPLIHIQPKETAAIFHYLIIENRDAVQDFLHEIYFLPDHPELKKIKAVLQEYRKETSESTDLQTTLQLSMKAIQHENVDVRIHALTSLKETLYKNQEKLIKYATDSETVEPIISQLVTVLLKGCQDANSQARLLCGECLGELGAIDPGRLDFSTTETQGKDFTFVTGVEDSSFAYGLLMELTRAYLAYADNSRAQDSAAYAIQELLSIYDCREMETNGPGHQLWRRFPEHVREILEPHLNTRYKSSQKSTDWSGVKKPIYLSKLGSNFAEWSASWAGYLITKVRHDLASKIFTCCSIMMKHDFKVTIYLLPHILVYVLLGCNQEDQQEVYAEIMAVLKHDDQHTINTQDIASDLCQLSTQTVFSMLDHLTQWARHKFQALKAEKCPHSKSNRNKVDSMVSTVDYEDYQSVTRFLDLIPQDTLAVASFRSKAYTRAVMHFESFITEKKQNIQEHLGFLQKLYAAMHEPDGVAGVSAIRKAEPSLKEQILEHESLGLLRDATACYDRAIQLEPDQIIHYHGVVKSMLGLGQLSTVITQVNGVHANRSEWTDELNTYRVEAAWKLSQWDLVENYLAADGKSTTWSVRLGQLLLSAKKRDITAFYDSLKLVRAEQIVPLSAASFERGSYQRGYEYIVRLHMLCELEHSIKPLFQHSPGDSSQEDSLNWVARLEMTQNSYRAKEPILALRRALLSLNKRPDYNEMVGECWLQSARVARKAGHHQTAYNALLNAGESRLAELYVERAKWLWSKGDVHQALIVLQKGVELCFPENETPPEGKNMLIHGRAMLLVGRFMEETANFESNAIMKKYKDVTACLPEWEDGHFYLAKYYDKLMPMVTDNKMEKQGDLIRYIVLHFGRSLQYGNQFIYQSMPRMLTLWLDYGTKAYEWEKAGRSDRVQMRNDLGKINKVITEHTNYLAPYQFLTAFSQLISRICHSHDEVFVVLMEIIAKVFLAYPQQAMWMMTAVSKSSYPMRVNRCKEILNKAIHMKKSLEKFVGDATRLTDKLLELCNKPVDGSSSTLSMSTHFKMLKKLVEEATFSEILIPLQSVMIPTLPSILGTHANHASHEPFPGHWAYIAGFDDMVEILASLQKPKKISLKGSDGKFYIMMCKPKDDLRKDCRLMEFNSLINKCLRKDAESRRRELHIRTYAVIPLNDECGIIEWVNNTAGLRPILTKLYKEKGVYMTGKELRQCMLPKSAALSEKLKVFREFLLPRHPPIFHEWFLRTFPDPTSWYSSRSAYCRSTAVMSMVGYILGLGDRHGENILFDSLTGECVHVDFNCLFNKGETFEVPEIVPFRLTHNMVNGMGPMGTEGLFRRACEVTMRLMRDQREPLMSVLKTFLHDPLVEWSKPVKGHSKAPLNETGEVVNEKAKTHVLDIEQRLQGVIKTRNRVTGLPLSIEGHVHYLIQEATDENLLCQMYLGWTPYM
Chain of full-length human ATR protein (Q8WXE1 other isoform, or with tags, fused parts or gaps partner): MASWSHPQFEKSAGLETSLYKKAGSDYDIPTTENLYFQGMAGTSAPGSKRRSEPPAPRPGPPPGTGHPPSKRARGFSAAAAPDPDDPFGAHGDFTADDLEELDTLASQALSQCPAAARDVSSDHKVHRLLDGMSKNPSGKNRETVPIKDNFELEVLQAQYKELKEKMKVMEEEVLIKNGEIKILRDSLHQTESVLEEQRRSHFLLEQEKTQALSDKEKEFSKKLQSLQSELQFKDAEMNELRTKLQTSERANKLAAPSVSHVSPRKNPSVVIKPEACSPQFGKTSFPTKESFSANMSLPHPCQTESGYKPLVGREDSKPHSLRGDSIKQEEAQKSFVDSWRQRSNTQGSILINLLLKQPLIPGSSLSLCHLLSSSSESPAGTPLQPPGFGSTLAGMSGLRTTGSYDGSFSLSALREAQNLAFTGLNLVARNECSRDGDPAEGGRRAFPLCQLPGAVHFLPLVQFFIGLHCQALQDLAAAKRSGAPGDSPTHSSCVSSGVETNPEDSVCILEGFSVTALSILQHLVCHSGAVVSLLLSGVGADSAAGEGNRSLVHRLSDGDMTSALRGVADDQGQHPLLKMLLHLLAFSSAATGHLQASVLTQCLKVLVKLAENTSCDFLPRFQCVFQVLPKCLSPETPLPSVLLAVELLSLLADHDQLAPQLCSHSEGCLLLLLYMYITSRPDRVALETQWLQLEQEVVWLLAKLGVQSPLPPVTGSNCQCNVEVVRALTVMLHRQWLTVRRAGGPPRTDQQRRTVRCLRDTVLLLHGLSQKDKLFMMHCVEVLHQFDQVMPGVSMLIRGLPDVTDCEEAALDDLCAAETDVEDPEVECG

Which IC50 does the source give for `c1ccc(-c2ccc(-c3cc(N4CCOCC4)nc4c(-c5ccn[nH]5)nccc34)cc2)cc1` [Example 331, 4-(biphenyl-4-yl)-2-(morpholin-4-yl)-8-(1H-pyrazol-5-yl)-1,7-naphthyridine] here?
The IC50 was 376 nM.

For `CN(C)c1cc(N2CCOCC2)nc2c(-c3ccn[nH]3)nccc12` [Example 206, N,N-dimethyl-2-(morpholin-4-yl)-8-(1H-pyrazol-5-yl)-1,7-naphthyridin-4-amine], which IC50 is on record?
The IC50 was 404 nM.

For `[O-][S+](c1ccccc1)c1cc(N2CCOCC2)nc2c(-c3ccn[nH]3)nccc12` (stereo not drawn) [Example 201, 2-(morpholin-4-yl)-4-(phenylsulfinyl)-8-(1H-pyrazol-5-yl)-1,7-naphthyridine], which IC50 is on record?
The IC50 was 40 nM.

For `CN(c1ccccc1F)c1cc(N2CCOCC2)nc2c(-c3ccn[nH]3)nccc12` [Example 427, N-(2-fluorophenyl)-N-methyl-2-(morpholin-4-yl)-8-(1H-pyrazol-5-yl)-1,7-naphthyridin-4-amine], which IC50 is on record?
The IC50 was 112 nM.

Which IC50 does the source give for `C[C@@H]1COCCN1c1cc(-c2ccc(N3CCCC3)cc2F)c2ccnc(-c3ccn[nH]3)c2n1` [Example 134, 4-[2-fluoro-4-(pyrrolidin-1-yl)phenyl]-2-[(3R)-3-methylmorpholin-4-yl]-8-(1H-pyrazol-5-yl)-1,7-naphthyridine] here?
Its IC50 is 34.3 nM.

Which IC50 does the source give for `C1=C(c2cc(N3CCOCC3)nc3c(-c4cc[nH]n4)nccc23)CCOC1` [Example 4, 4-(3,6-dihydro-2H-pyran-4-yl)-2-(morpholin-4-yl)-8-(1H-pyrazol-3-yl)-[1,7]naphthyridine] here?
The IC50 was 61.7 nM.

`CC(C)Sc1cc(N2CCOCC2)nc2c(-c3ccn[nH]3)nccc12` [Example 210, 2-(morpholin-4-yl)-4-(propan-2-ylsulfanyl)-8-(1H-pyrazol-5-yl)-1,7-naphthyridine] was tested. Which IC50 did it give?
Its IC50 is 231 nM.

How did the IC50 turn out when `Cc1nnc(-c2cc(N3CCOC[C@H]3C)nc3c(-c4ccn[nH]4)nccc23)o1` [Example 136, 2-[(3R)-3-methylmorpholin-4-yl]-4-(5-methyl-1,3,4-oxadiazol-2-yl)-8-(1H-pyrazol-5-yl)-1,7-naphthyridine] was run?
Its IC50 is 35.8 nM.

Which IC50 does the source give for `O=C(NC1CC1)c1ccc(-c2cc(N3CCOCC3)nc3c(-c4ccn[nH]4)nccc23)cc1` [Example 291, N-cyclopropyl-4-[2-(morpholin-4-yl)-8-(1H-pyrazol-5-yl)-1,7-naphthyridin-4-yl]benzamide] here?
Its IC50 is 83.7 nM.

With `C[C@@H]1COCCN1c1cc(-c2cccc(F)n2)c2ccnc(-c3ccn[nH]3)c2n1` [Example 152, 4-(6-fluoropyridin-2-yl)-2-[(3R)-3-methylmorpholin-4-yl]-8-(1H-pyrazol-5-yl)-1,7-naphthyridine] as the compound, how does the IC50 read?
Its IC50 is 51.8 nM.

With `CS(=O)(=NC#N)c1ccc(-c2cc(N3CCOCC3)nc3c(-c4ccn[nH]4)nccc23)cc1` (stereo not drawn) [Example 191, (methyl{4-[2-(morpholin-4-yl)-8-(1H-pyrazol-5-yl)-1,7-naphthyridin-4-yl]phenyl}oxido-λ^6-sulfanylidene)cyanamide] as the compound, how does the IC50 read?
Its IC50 is 44.1 nM.

`Cn1cc(-c2cc(N3CCOCC3)nc3c(-c4ccn[nH]4)nccc23)cn1` [Example 367, 4-(1-methyl-1H-pyrazol-4-yl)-2-(morpholin-4-yl)-8-(1H-pyrazol-5-yl)-1,7-naphthyridine] was tested. Which IC50 did it give?
Its IC50 is 215 nM.

Which IC50 does the source give for `Cc1nn(C)cc1-c1cc(N2CCOCC2)nc2c(-c3ccn[nH]3)nccc12` [Example 271, 4-(1,3-dimethyl-1H-pyrazol-4-yl)-2-(morpholin-4-yl)-8-(1H-pyrazol-5-yl)-1,7-naphthyridine] here?
The IC50 was 41.6 nM.

How did the IC50 turn out when `C[C@@H]1COCCN1c1cc(-c2cccc(S(C)(=O)=O)c2)c2ccnc(-c3cc[nH]n3)c2n1` [Example 28, 4-(3-methanesulphonylphenyl)-2-((R)-3-methylmorpholin-4-yl)-8-(2H-pyrazol-3-yl)-[1,7]naphthyridine] was run?
The IC50 was 17.6 nM.

`NC(=O)c1cccc(-c2cc(N3CCOCC3)nc3c(-c4ccn[nH]4)nccc23)c1` [Example 295, 3-[2-(morpholin-4-yl)-8-(1H-pyrazol-5-yl)-1,7-naphthyridin-4-yl]benzamide] was tested. Which IC50 did it give?
Its IC50 is 113 nM.

Which IC50 does the source give for `C[C@@H]1COCCN1c1cc(-c2ccccc2F)c2ccnc(-c3ccn[nH]3)c2n1` [Example 77, 4-(2-fluorophenyl)-2-[(3R)-3-methylmorpholin-4-yl]-8-(1H-pyrazol-5-yl)-1,7-naphthyridine] here?
The IC50 was 8.92 nM.

How did the IC50 turn out when `Clc1cccc(-c2cc(N3CCOCC3)nc3c(-c4ccn[nH]4)nccc23)c1` [Example 304, 4-(3-chlorophenyl)-2-(morpholin-4-yl)-8-(1H-pyrazol-5-yl)-1,7-naphthyridine] was run?
The IC50 was 57.2 nM.

How did the IC50 turn out when `CC(C)Oc1ncccc1-c1cc(N2CCOCC2)nc2c(-c3ccn[nH]3)nccc12` [Example 405, 2-(morpholin-4-yl)-4-[2-(propan-2-yloxy)pyridin-3-yl]-8-(1H-pyrazol-5-yl)-1,7-naphthyridine] was run?
Its IC50 is 419 nM.

Which IC50 does the source give for `CSc1cc(N2CCOC[C@H]2C)nc2c(-c3ccn[nH]3)nccc12` [Example 63, 2-[(3R)-3-methylmorpholin-4-yl]-4-(methylsulfanyl)-8-(1H-pyrazol-5-yl)-1,7-naphthyridine] here?
The IC50 was 80.7 nM.

How did the IC50 turn out when `CSCc1cc(N2CCOC[C@H]2C)nc2c(-c3ccn[nH]3)nccc12` [Example 186, 2-[(3R)-3-methylmorpholin-4-yl]-4-[(methylsulfanyl)methyl]-8-(1H-pyrazol-5-yl)-1,7-naphthyridine] was run?
Its IC50 is 67.4 nM.

How did the IC50 turn out when `C[C@@H]1COCCN1c1cc(-c2cnn(C(F)F)c2)c2ccnc(-c3ccn[nH]3)c2n1` [Example 256, 4-[1-(difluoromethyl)-1H-pyrazol-4-yl]-2-[(3R)-3-methylmorpholin-4-yl]-8-(1H-pyrazol-5-yl)-1,7-naphthyridine] was run?
The IC50 was 56.2 nM.

For `CC(C)Oc1cc(N2[C@H](C)COC[C@H]2C)nc2c(-c3ccn[nH]3)nccc12` [Example 59, 2-[(3R,5R)-3,5-dimethylmorpholin-4-yl]-4-isopropoxy-8-(1H-pyrazol-5-yl)-1,7-naphthyridine], which IC50 is on record?
Its IC50 is 730 nM.

With `C[C@@H]1COCCN1c1cc(-c2cccc(S(C)(=N)=O)c2)c2ccnc(-c3ccn[nH]3)c2n1` (stereo partly drawn) [Example 31, 3-[2-((R)-3-methylmorpholin-4-yl)-8-(2H-pyrazol-3-yl)-[1,7]naphthyridine-4-yl]phenyl-S-methylsulphoximide] as the compound, how does the IC50 read?
Its IC50 is 86.6 nM.

`C[C@@H]1COCCN1c1cc(N=S(C)(=O)c2ccccc2F)c2ccnc(-c3ccn[nH]3)c2n1` (single isomer, unassigned) [Example 140] was tested. Which IC50 did it give?
Its IC50 is 76.5 nM.

How did the IC50 turn out when `Cc1n[nH]cc1-c1cc(N2CCOC[C@H]2C)nc2c(-c3ccn[nH]3)nccc12` [Example 266, 2-[(3R)-3-methylmorpholin-4-yl]-4-(3-methyl-1H-pyrazol-4-yl)-8-(1H-pyrazol-5-yl)-1,7-naphthyridine] was run?
Its IC50 is 8.31 nM.

For `CNC(=O)c1ccc(-c2cc(N3CCOCC3)nc3c(-c4ccn[nH]4)nccc23)cn1` [Example 398, N-methyl-5-[2-(morpholin-4-yl)-8-(1H-pyrazol-5-yl)-1,7-naphthyridin-4-yl]pyridine-2-carboxamide], which IC50 is on record?
Its IC50 is 120 nM.

For `CN(CC(C)(C)C)c1cc(N2CCOCC2)nc2c(-c3ccn[nH]3)nccc12` [Example 436, N-(2,2-dimethylpropyl)-N-methyl-2-(morpholin-4-yl)-8-(1H-pyrazol-5-yl)-1,7-naphthyridin-4-amine], which IC50 is on record?
The IC50 was 24 nM.

`COc1ncc(-c2cc(N3CCOC[C@H]3C)nc3c(-c4ccn[nH]4)nccc23)cc1C` [Example 96, 4-(6-methoxy-5-methylpyridin-3-yl)-2-[(3R)-3-methylmorpholin-4-yl]-8-(1H-pyrazol-5-yl)-1,7-naphthyridine] was tested. Which IC50 did it give?
The IC50 was 12.7 nM.

For `COc1ccc2c(c1)cc(-c1cc(N3CCOCC3)nc3c(-c4ccn[nH]4)nccc13)n2C(=O)OC(C)(C)C` [Example 368, tert-butyl 5-methoxy-2-[2-(morpholin-4-yl)-8-(1H-pyrazol-5-yl)-1,7-naphthyridin-4-yl]-1H-indole-1-carboxylate], which IC50 is on record?
Its IC50 is 3950 nM.

`C[C@@H]1COCCN1c1cc(N=S(C)(=O)c2ccccc2F)c2ccnc(-c3ccn[nH]3)c2n1` (single isomer, unassigned) [Example 141] was tested. Which IC50 did it give?
The IC50 was 386 nM.

For `Nc1ccc(-c2cc(N3CCOCC3)nc3c(-c4ccn[nH]4)nccc23)cn1` [Example 386, 5-[2-(morpholin-4-yl)-8-(1H-pyrazol-5-yl)-1,7-naphthyridin-4-yl]pyridin-2-amine], which IC50 is on record?
Its IC50 is 173 nM.

`c1ccc2c(c1)CCN(c1cc(N3CCOCC3)nc3c(-c4ccn[nH]4)nccc13)C2` [Example 419, 4-(3,4-dihydroisoquinolin-2(1H)-yl)-2-(morpholin-4-yl)-8-(1H-pyrazol-5-yl)-1,7-naphthyridine] was tested. Which IC50 did it give?
Its IC50 is 118 nM.

How did the IC50 turn out when `COc1ccc(Sc2cc(N3CCOCC3)nc3c(-c4ccn[nH]4)nccc23)cc1` [Example 213] was run?
Its IC50 is 53.5 nM.

Which IC50 does the source give for `OC1CCN(c2cc(N3CCOCC3)nc3c(-c4ccn[nH]4)nccc23)CC1` [Example 409, 1-[2-(morpholin-4-yl)-8-(1H-pyrazol-5-yl)-1,7-naphthyridin-4-yl]piperidin-4-ol] here?
Its IC50 is 139 nM.

Same assay, conditions: tracer B, TR-FRET; read-out: ATR binding (tracer B) IC50

How did the IC50 turn out when `C1=C(c2cc(N3CCOCC3)nc3c(-c4cc[nH]n4)nccc23)CCOC1` [Example 4, 4-(3,6-dihydro-2H-pyran-4-yl)-2-(morpholin-4-yl)-8-(1H-pyrazol-3-yl)-[1,7]naphthyridine] was run?
Its IC50 is 43.5 nM.

Which IC50 does the source give for `C[C@@H]1COCCN1c1cc(-c2cccc(S(C)(=O)=O)c2)c2ccnc(-c3cc[nH]n3)c2n1` [Example 28, 4-(3-methanesulphonylphenyl)-2-((R)-3-methylmorpholin-4-yl)-8-(2H-pyrazol-3-yl)-[1,7]naphthyridine] here?
Its IC50 is 8.4 nM.

With `CSc1cc(N2CCOC[C@H]2C)nc2c(-c3ccn[nH]3)nccc12` [Example 63, 2-[(3R)-3-methylmorpholin-4-yl]-4-(methylsulfanyl)-8-(1H-pyrazol-5-yl)-1,7-naphthyridine] as the compound, how does the IC50 read?
Its IC50 is 30.7 nM.

Which IC50 does the source give for `CC(C)Oc1cc(N2[C@H](C)COC[C@H]2C)nc2c(-c3ccn[nH]3)nccc12` [Example 59, 2-[(3R,5R)-3,5-dimethylmorpholin-4-yl]-4-isopropoxy-8-(1H-pyrazol-5-yl)-1,7-naphthyridine] here?
The IC50 was 1250 nM.

Which IC50 does the source give for `C[C@@H]1COCCN1c1cc(-c2cccc(S(C)(=N)=O)c2)c2ccnc(-c3ccn[nH]3)c2n1` (stereo partly drawn) [Example 31, 3-[2-((R)-3-methylmorpholin-4-yl)-8-(2H-pyrazol-3-yl)-[1,7]naphthyridine-4-yl]phenyl-S-methylsulphoximide] here?
Its IC50 is 45.1 nM.
